We go through one substance from patent publication US20170107503A1, “NOVEL METHODS, POLYPEPTIDES AND USES THEREOF” (priority 2014, published 2017).

Holding throughout (assay type): biochemical
Settings in all cases: WT-Trp = 100

Test [1] addresses T1, Atlantic cod (Gadus morhua) trypsin I variant EZA-003, K154T in SEQ ID NO: 1 (K152T in SEQ ID NO: 2) (Gadus morhua, UniProt P16049, K152T).
T1 construct: made in house; host or cells: E. coli BL21 (DE3)
Briefly: Activity assay to determine kinetic constants, EZA-003. The procedure: (§1) Polypeptides corresponding to the wildtype amino acid sequence of trypsin I from Atlantic cod and thirty-eight mutated versions thereof were produced using the methods described in Example A.
(§2) Activation of recombinant enzymes (approximately 0.01 mg/ml) was achieved by adding wild type trypsin (0.2 U/ml) at room temperature and incubate for 24 hours. The mixture was made in 20 mM Tris-HCl, 1 mM CaCl2, 50% glycerol, pH 8.0 to a final volume of 200 μl.
(§3) The substrate (Gly-Pro-Arg) was used at concentrations 0.005-0.15 mM in assay buffer containing 1% DMSO. 245 μL of substrate solutions were pipetted into a 96-well plate. The reaction was started by adding 5 μL of the sample mixture (above) and monitored at 410 nm in a SpectraMax plate reader. Kinetic measurement was performed every minute of a continuous 15-min run.

Test [2] concerns the target T2, Atlantic cod (Gadus morhua) trypsin I variant EZA-006, K154E in SEQ ID NO: 1 (K152E in SEQ ID NO: 2) (Gadus morhua, UniProt P16049, K152E).
T2 construct: made in house; host or cells: E. coli BL21 (DE3)
The test is described as follows: Activity assay to determine kinetic constants, EZA-006. The protocol:
as §1, §2, §3

The test system of test [3] is Atlantic cod (Gadus morhua) trypsin I variant EZA-004, K154L in SEQ ID NO: 1 (K152L in SEQ ID NO: 2). Briefly: Activity assay to determine kinetic constants, EZA-004. The protocol:
as §1, §2, §3

For test [4], the system named is Atlantic cod (Gadus morhua) trypsin I variant EZA-009, L185G, P225Y in SEQ ID NO: 1 (L184G, P221Y in SEQ ID NO: 2). The test is described as follows: Activity assay to determine kinetic constants, EZA-009. The protocol: as §1, §2, §3
Test [5] relates to Atlantic cod (Gadus morhua) trypsin I variant EZA-005, K154V in SEQ ID NO: 1 (K152V in SEQ ID NO: 2). Briefly: Activity assay to determine kinetic constants, EZA-005. The protocol: as §1, §2, §3
The target in test [6] is T3, Atlantic cod (Gadus morhua) trypsin I, wildtype, purified from Atlantic cod (WT-Trp), SEQ ID NO: 1 (Gadus morhua, UniProt P16049).
T3 construct: from tissue
T3 sequence (P16049 20-241): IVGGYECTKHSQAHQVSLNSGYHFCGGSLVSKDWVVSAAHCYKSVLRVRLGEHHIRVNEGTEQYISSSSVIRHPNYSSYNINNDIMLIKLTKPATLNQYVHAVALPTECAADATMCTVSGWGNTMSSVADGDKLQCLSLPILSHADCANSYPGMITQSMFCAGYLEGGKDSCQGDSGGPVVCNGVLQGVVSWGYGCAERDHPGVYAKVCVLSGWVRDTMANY
Briefly: Activity assay to determine kinetic constants, WT-Trp (purified). The procedure:
The following polypeptides were obtained or produced: • (a) Wildtype trypsin I purified from Atlantic cod (“WT-Tryp” or “wildtype”); • (b) Recombinantly expressed wildtype trypsin I of Atlantic cod (SEQ ID NO:1, “R-Tryp”); and • (c) Thirty-eight different mutated versions of trypsin I of Atlantic cod (i.e. mutated sequences of SEQ ID NO:1).
as §3

Test [7] deals with Atlantic cod (Gadus morhua) trypsin I variant EZA-008, I99L in SEQ ID NO: 1 (I100L in SEQ ID NO: 2). The test is described as follows: Activity assay to determine kinetic constants, EZA-008. The procedure:
as §1, §2, §3

For test [8], the target named is T4, Atlantic cod (Gadus morhua) trypsin I, recombinant wildtype, EZA-001, SEQ ID NO: 1 (Gadus morhua, UniProt P16049).
T4 construct: made in house; host or cells: E. coli BL21 (DE3)
T4 sequence (P16049 20-241): T3 sequence (P16049 20-241)
The test is described as follows: Activity assay to determine kinetic constants, EZA-001. The procedure:
as §1, §2, §3

Test [9] deals with Atlantic cod (Gadus morhua) trypsin I variant EZA-002, N244S, Y245N, S87K in SEQ ID NO: 1 (N240S, Y241N, S88K in SEQ ID NO: 2). The test is described as follows: Activity assay to determine kinetic constants, EZA-002. The procedure:
as §1, §2, §3

In test [10] the test system is Atlantic cod (Gadus morhua) trypsin I variant EZA-007, N98T in SEQ ID NO: 1 (N99T in SEQ ID NO: 2). Briefly: Activity assay to determine kinetic constants, EZA-007. The procedure: as §1, §2, §3

T2 sequence (P16049 20-241 K152E): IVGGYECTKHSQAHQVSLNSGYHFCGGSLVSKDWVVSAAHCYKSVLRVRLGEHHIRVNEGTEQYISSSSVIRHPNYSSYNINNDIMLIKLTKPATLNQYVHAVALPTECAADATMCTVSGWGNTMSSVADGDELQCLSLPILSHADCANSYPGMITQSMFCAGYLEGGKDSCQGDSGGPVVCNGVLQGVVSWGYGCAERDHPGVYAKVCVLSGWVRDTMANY
T1 sequence (P16049 20-241 K152T): as the sequence (P16049 20-241 K152E) above, with E133T counted along it

For the substance Gly-Pro-Arg, the “Vmax, Relative to WT-Trp” value is recorded as 96 in [1]; 98 in test [2]; 82 in [3]; 98 in test [4]; 96 in [5]; 95 in test [7]. The “Vmax, Relative to WT-Trp” value in test [8], in [9] and in test [10] was 99 in each case. For the same substance, the “Vmax (Kcat), Relative to WT-Trp” value in [6] was found to be 100.
